By Ki is commonly meant the equilibrium dissociation constant of an inhibitor or competing ligand from its target.

Each structure is given as a SMILES string. Structures can show the parent of a compound that is named as a salt.

The source of these data is EP1123702A1, “ANALGESICS” (Eisai Co., Ltd., priority 1998, dated 2000).

For assay [1], the target named is 5HT2 (Homo sapiens, UniProt P28223). In words: Serotonin (5HT) receptor binding action (RBA; in vitro), 5HT2. The conditions noted are these: method of JP98/01481 or JP-A 10-281752.
Assay [2] deals with writhing behavior. In words: Analgesic action by a writhing method using acetic acid. It counts as in vivo, Male mice of a ddY strain. Particulars: sc; statistically minimum effective dose; 0.6% acetic acid ip 15 minutes after the drug, writhing counted for ten minutes; mice.
Assay [3] addresses T1, 5HT1A (Homo sapiens, UniProt P08908).
T1 sequence (P08908 1-422): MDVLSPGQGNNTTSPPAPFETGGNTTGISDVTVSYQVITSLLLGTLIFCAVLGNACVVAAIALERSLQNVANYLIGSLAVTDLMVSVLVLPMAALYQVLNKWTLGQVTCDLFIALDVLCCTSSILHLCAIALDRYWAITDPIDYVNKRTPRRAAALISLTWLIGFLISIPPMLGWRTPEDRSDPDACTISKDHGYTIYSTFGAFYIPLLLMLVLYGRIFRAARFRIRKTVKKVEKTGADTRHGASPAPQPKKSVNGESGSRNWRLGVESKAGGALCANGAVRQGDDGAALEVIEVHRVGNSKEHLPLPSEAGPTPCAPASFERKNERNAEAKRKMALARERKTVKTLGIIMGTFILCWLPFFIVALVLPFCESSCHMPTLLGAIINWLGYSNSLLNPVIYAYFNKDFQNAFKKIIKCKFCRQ
In words: Serotonin (5HT) receptor binding action (RBA; in vitro), 5HT1A. Particulars: method of JP98/01481 or JP-A 10-281752.

A short description of assay [4]: Muscle relaxing action (in vivo). Particulars: method of JP98/01481 or JP-A 10-281752. From the text: There are also shown a serotonin (5HT) receptor binding action (RBA; in vitro) and a muscle relaxing action (in vivo) measured according to a method described in JP98/01481 or JP-A 10-281752. (In the table, "n.t." means "not tested").

Sequence of 5HT2 (P28223 whole entry, species assumed): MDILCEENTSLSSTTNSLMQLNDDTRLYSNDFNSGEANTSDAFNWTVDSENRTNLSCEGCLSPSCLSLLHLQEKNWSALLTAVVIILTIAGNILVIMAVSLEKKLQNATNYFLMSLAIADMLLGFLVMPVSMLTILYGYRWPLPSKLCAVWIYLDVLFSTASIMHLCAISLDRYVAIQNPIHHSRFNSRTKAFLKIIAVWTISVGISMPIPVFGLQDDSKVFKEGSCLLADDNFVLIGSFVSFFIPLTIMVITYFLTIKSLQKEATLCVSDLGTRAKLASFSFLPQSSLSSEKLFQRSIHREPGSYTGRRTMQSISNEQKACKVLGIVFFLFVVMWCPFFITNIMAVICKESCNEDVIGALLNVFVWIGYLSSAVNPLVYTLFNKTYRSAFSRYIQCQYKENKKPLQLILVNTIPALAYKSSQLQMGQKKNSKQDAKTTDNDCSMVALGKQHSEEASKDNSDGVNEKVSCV

Consider `CCCNC(=O)c1ccc(-c2cc3ccccc3c(N3CCN(CC)CC3)n2)cc1` [(18), 1-(4-ethylpiperazin-1-yl) -3-[4-(N-propylamide)phenyl]isoquinoline hydrochloride], for which the values for the Ki in assay [1] and in assay [3] were 1.1 nM and 14.6 nM, respectively. Further, the “Analgesic Action (minimum effective dose)” value (from here on “Analgesic Action”) in assay [2] came out at 1 mg/kg. Also, in assay [4], the “Muscle-Relaxing Action (ip)” value was more than 10 mg/kg. Besides, the “Muscle-Relaxing Action (po)” value in assay [4] is 3 mg/kg.
For the molecule `CCN1CCN(c2nc(-c3ccc(CCC(C)(C)O)c(F)c3)cc3ccccc23)CC1.Cl` [(19), 1-(4-ethylpiperazin-1-yl)-3-[3-fluoro-4-(3-hydroxy-3-methylbutyl)phenyl]isoquinoline hydrochloride], the Ki in assay [1] is 0.7 nM; in assay [3], 31.2 nM. For the same molecule, the “Analgesic Action” value in assay [2] was 1 mg/kg. Also, in assay [4], the “Muscle-Relaxing Action (ip)” value is less than 10 mg/kg. Further, in assay [4], the “Muscle-Relaxing Action (po)” value worked out at 3 mg/kg.
As for `CCN1CCN(c2nc(-c3ccc(CCCO)c(OC)c3)cc3ccccc23)CC1.Cl` [(20), 1-(4-ethylpiperazin-1-yl)-3-(3-methoxy-4-hydroxypropylphenyl)isoquinoline hydrochloride], the results for the Ki in assay [1] and in assay [3] were 10.9 nM and 7.9 nM, respectively. Moreover, in assay [2], the “Analgesic Action” value was determined as 3 mg/kg. In assay [4], the “Muscle-Relaxing Action (po)” value turned out to be 10 mg/kg.
In the case of `CCN1CCN(c2nc(-c3ccc(OCCO)c(C#N)c3)cc3ccccc23)CC1.Cl` [(21), 1-(4-ethylpiperazin-1-yl)-3-(3-cyano-4-hydroxyethoxyphenyl)isoquinoline hydrochloride], the figures for the Ki in assay [1] and in assay [3] were 4.5 nM and 13.4 nM, respectively. Also, the “Analgesic Action” value in assay [2] came to 1 mg/kg. Further, in assay [4], the “Muscle-Relaxing Action (ip)” value came to 10 mg/kg.
As to `CCCS(=O)(=O)NCc1ccc(-c2cc3ccccc3c(N3CCN(CC)CC3)n2)cc1Cl.Cl` [(23), 1-(4-ethylpiperazin-1-yl)-3-(3-chloro-4-propylsulfonylaminomethylphenyl)isoquinoline hydrochloride], the results for the Ki in assay [1] and in assay [3] were 0.7 nM and 0.9 nM, respectively. The “Analgesic Action” value in assay [2] is 3 mg/kg. The “Muscle-Relaxing Action (po)” value in assay [4] is reported as more than 30 mg/kg.
For the molecule `CCN1CCN(c2nc(-c3ccc(OCC(C)O)cc3)cc3sccc23)CC1.Cl` (stereo not drawn) [(24), 4-(4-ethylpiperazin-1-yl)-6-[4-(2-hydroxypropoxy)phenyl]thieno[3,2-c]pyridine hydrochloride], the Ki in assay [1] was determined as 0.9 nM; in assay [3] it was 27.9 nM. For the same molecule, the “Analgesic Action” value in assay [2] is reported as 1 mg/kg. Besides, the “Muscle-Relaxing Action (ip)” value in assay [4] is 1 mg/kg. Moreover, in assay [4], the “Muscle-Relaxing Action (po)” value amounted to 3 mg/kg.
Molecule `CCN1CCN(c2nc(-c3ccc(OCC(C)(C)O)cc3)cc3sccc23)CC1.Cl` [(25), 4-(4-ethylpiperazin-1-yl)-6-[4-(2-hydroxy-2-methylpropoxy)phenyl]thieno[3,2-c]pyridine hydrochloride] displayed a Ki in assay [1] of 1.4 nM. For the same molecule, in assay [2], the “Analgesic Action” value came out at 10 mg/kg. The same molecule came in with a Ki in assay [3] of 54.9 nM. In addition, in assay [4], the “Muscle-Relaxing Action (ip)” value came out at 0.3 mg/kg and the “Muscle-Relaxing Action (po)” value worked out at 1 mg/kg.
In the case of `CCN1CCN(c2nc(-c3ccc(C(C)O)cc3)cc3sccc23)CC1.O=C(O)C(=O)O` (stereo not drawn) [(26), 4-(4-ethylpiperazin-1-yl)-6-[4-(1-hydroxyethyl)phenyl]thieno[3,2-c]pyridine oxalate], the Ki in assay [1] is 16.9 nM; in assay [3], 15 nM. In assay [2], the “Analgesic Action” value turned out to be 1 mg/kg. Also, in assay [4], the “Muscle-Relaxing Action (po)” value is on record as less than 3 mg/kg.
